Key:
[1] = tested on: Renca cells (renal cell carcinoma); test: Effect of isomers on in vivo tumour growth in mice challenged with Renca cells (Example 7); parameters: species or system Balb/c mice; details: for Tumour surface, overall values (Mean) / Tumour surface, overall values (Median) / Tumour volume, overall values (Mean) / Tumour volume, overall values (Median): 260 ng/mouse i.p. days 6, 7, 14
Excerpt: This assay was made in order to check the effect of each stereoisomer on in vivo tumour growth in mice challenged with Renca cells. Their effect was compared with placebo. The stereoisomers assayed were:
Renca is a renal cell carcinoma originated in Balb/c mouse strain, and therefore syngeneic in mice with Balb/c genetic background [Melder R J et al., Cancer Immunol. Immunother., 2005, 54:535-547; Felluga B et al., 1969, J. Natl. Cancer Inst. 43:319-333]. Renca is considered a moderate immunogenic tumour and used as suitable model for testing immunointervention approaches [Salup R R, et al., 1992, The Journal of Urology, 147:1120-1123].
(§1) Renca cells (CLS, Eppelheim, Germany) were maintained in vitro by serial passages every 3-4 days. Cultures were performed with RPMI medium medium (RPMI, 10% foetal calf serum, 2 mM L-glutamine, non essential amino acids, 1 mM sodium pyruvate, 20 mM HEPES, 80 μg/mL gentamycin; all of them were purchased from Sigma, St. Louis, Mo., USA) by seeding 5×10^6 cells onto 75 cm^2 culture flasks. Tumour cells collected from 48 hour cultures upon trypsinization (Sigma, St. Louis, Mo., USA) were used as source of Renca cells for the studies described below.
Each isomer was tested at the dose levels of 260 ng administered on days 6, 7 and 14 after tumour inoculation.
The treatments were given by intraperitoneal route (i.p.). The volume inoculated was 0.2 mL/animal. This route was chosen because it is the one described in the original method [Pérez S, et al., 2003, Clinical Cancer Research. 9:5776-5785].
Tumours were established by subcutaneous inoculation in the right hind flank. Mice (Balb/c) were inoculated with 0.2 mL containing 10^5 viable Renca cells. The day of subcutaneous inoculation will be considered Day 0 of the test.
(§2) Mice were observed daily and the tumour size recorded twice a week. This was carried out by measuring two perpendicular diameters (L/W) with a calliper. These measures were used to obtain both tumour surface and volume: Tumour surface=L×W(mm^2) Tumour volume=L×W^2×½(mm^3)
(§3) Results were expressed as single values and/or as the mean±SD or median from each experimental group.
(§4) A case-control study was performed with treated and control mice in order to determine whether differences between isomers and administration of placebo were present. […] The U-test of Mann Withney was chosen for being one of the better known non-parametrical tests, anyway, results for this test are equivalent both to those of Wilcoxon's sum of ranges and Kruskal-Wallis two-groups test.
Due to the high dispersion of data, outlayers (animals beyond percentile 25 or above percentile 75 for tumour surface at day 25) were excluded of the study.

[2] = tested on: Ehrlich tumour cells (murine mammary adenocarcinoma); test: Effect of isomers and BLAS on in vivo tumour growth, Ehrlich tumours (Example 9); parameters: species or system Balb/c mice; details: for Tumour surface, overall values (Mean) / Tumour surface, overall values (Median) / Tumour volume, overall values (Mean) / Tumour volume, overall values (Median): 260 ng/mouse i.p. days 6, 7 and 14
Excerpt: This assay was made in order to compare the effect of each stereoisomer on in vivo tumour growth in mice with the effect of the mixture of all of them challenged with Ehlrich tumours. The same products, equipment, reagents, doses, vehicle and route of administration as in example 8 were used.
Mice were inoculated with Ehrlich tumour cells. It was described as a murine mammary adenocarcinoma. Ehrlich tumour is a murine mammary carcinoma originally raised in an outbred mouse, and therefore it belongs to the so-called non-specific tumours (Subiza J L, Viñuela J E, Rodriguez R, Gil J, Figueredo M A, de la Concha. E G. Development of splenic natural suppressor (NS) cells in Ehrlich tumor bearing mice. Int J Cancer, 44:307 315; 1989). It may grow across histocompatibility barriers and therefore is not mouse strain specific (Carry P J, Prescott D M, Ogilvie G K. Resistance to Ehrlich ascites tumor in a strain of dystrophic mice. Cancer Res., 39:2139-2140; 1979).
as §1, with “Ehrlich” for “Renca”, “cells” for “cells (CLS, Eppelheim, Germany)”, “aminoacids,” for “amino acids,”, “cultures” for “cultures upon trypsinization (Sigma, St. Louis, Mo., USA)”, “of” for “of Renca”
Tumours were established by subcutaneous inoculation in the right hind flank. Mice (Balb/c) were inoculated with 0.2 mL containing 2×10^5 viable Ehrlich cells. The day of subcutaneous inoculation will be considered Day 0 of the test.
as §2, §3
as §4, with “BLAS or each diferent stereoisomer” for “isomers”

[3] = day 11 after tumour inoculation
[4] = day 14 after tumour inoculation
[5] = day 13 after tumour inoculation
[6] = day 16 after tumour inoculation
[7] = day 20 after tumour inoculation
[8] = day 23 after tumour inoculation
[9] = day 29 after tumour inoculation
[10] = day 31 after tumour inoculation
[11] = day 35 after tumour inoculation
[12] = day 38 after tumour inoculation

## Br.N[C@]1(C[n+]2ccccc2)C[C@@H](C(=O)O)NC1=O.[Br-] (single isomer, unassigned; isomer 3) [isomer 3, 3S,5S-1-(3-Amino-5-carboxy-2-oxopyrrolidin-3-ylmethyl)pyridinium bromide hidrobromide]
[1]; 260 ng i.p. days 6, 7, 14
  Inhibition of the in vivo growth of the renal cell carcinoma (Renca), in words: inhibit the in vivo growth
[1]; day 0 after tumour inoculation
  Tumour surface, overall values (Mean): 0 mm^2
  Tumour surface, overall values (Median): 0 mm^2
  Tumour volume, overall values (Mean): 0 mm^3
  Tumour volume, overall values (Median): 0 mm^3
[1]; [3]
  Tumour surface, overall values (Mean): 0.3 mm^2
  Tumour surface, overall values (Median): 0 mm^2
  Tumour volume, overall values (Median): 0 mm^3
[1]; [4]
  Tumour surface, overall values (Median): 4 mm^2
  Tumour volume, overall values (Median): 4 mm^3
[1]; either in surface or volume, days 18th and 25th of tumour development
  Differences in Renca tumour growth rate vs. placebo, statistical significance p (Mann-Whitney U test): < 0.05
[2]; 260 ng i.p. days 6, 7 and 14
  Inhibition of the in vivo growth of Ehrlich tumour cells, in words: inhibit the in vivo growth
  Inhibitory effect on Ehrlich tumour growth compared among treatments, in words: highest inhibitory effect
[2]; day 0 after tumour inoculation
  Tumour surface, overall values (Mean): 0 mm^2
  Tumour surface, overall values (Median): 0 mm^2
  Tumour volume, overall values (Mean): 0 mm^3
  Tumour volume, overall values (Median): 0 mm^3
[2]; day 8 after tumour inoculation
  Tumour surface, overall values (Mean): 3.62 mm^2
  Tumour surface, overall values (Median): 0 mm^2
  Tumour volume, overall values (Mean): 6 mm^3
  Tumour volume, overall values (Median): 0 mm^3
[2]; [5]
  Tumour surface, overall values (Mean): 10.94 mm^2
  Tumour surface, overall values (Median): 9 mm^2
  Tumour volume, overall values (Mean): 23.53 mm^3
  Tumour volume, overall values (Median): 13.5 mm^3
[2]; [6]
  Tumour surface, overall values (Mean): 16.5 mm^2
  Tumour surface, overall values (Median): 16 mm^2
  Tumour volume, overall values (Mean): 37.12 mm^3
  Tumour volume, overall values (Median): 32 mm^3
[2]; [7]
  Tumour surface, overall values (Mean): 24.12 mm^2
  Tumour surface, overall values (Median): 20 mm^2
  Tumour volume, overall values (Mean): 65.12 mm^3
  Tumour volume, overall values (Median): 40 mm^3
[2]; [8]
  Tumour surface, overall values (Mean): 32.25 mm^2
  Tumour surface, overall values (Median): 25 mm^2
  Tumour volume, overall values (Mean): 100.44 mm^3
  Tumour volume, overall values (Median): 62.5 mm^3
[2]; [9]
  Tumour surface, overall values (Mean): 42.94 mm^2
  Tumour surface, overall values (Median): 27.5 mm^2
  Tumour volume, overall values (Mean): 156.34 mm^3
  Tumour volume, overall values (Median): 68.75 mm^3
[2]; [10]
  Tumour surface, overall values (Mean): 53.37 mm^2
  Tumour surface, overall values (Median): 36 mm^2
  Tumour volume, overall values (Mean): 213.31 mm^3
  Tumour volume, overall values (Median): 100.5 mm^3
[2]; [11]
  Tumour surface, overall values (Mean): 66 mm^2
  Tumour surface, overall values (Median): 43 mm^2
  Tumour volume, overall values (Mean): 293.87 mm^3
  Tumour volume, overall values (Median): 135.5 mm^3
[2]; [12]
  Tumour surface, overall values (Mean): 79.37 mm^2
  Tumour surface, overall values (Median): 49.5 mm^2
  Tumour volume, overall values (Mean): 387.69 mm^3
  Tumour volume, overall values (Median): 164.25 mm^3
[2]; either in surface or volume, all days scored after the day 8th
  Differences in Ehrlich tumour growth rate vs. placebo, statistical significance p (Mann-Whitney U test): < 0.05
[2]; either in surface or volume, days 13th, 16th, 20th and 23th
  Differences in Ehrlich tumour growth rate BLAS vs. isomer 3, statistical significance p (Mann-Whitney U test): < 0.05

## Br.N[C@@]1(C[n+]2ccccc2)C[C@@H](C(=O)O)NC1=O.[Br-] (single isomer, unassigned; isomer 1) [isomer 1, 3R,5S-1-(3-Amino-5-carboxy-2-oxopyrrolidin-3-ylmethyl)pyridinium bromide hidrobromide]
[1]; day 0 after tumour inoculation
  Tumour surface, overall values (Mean): 0 mm^2
  Tumour surface, overall values (Median): 0 mm^2
  Tumour volume, overall values (Mean): 0 mm^3
  Tumour volume, overall values (Median): 0 mm^3
[1]; [3]
  Tumour surface, overall values (Median): 0 mm^2
  Tumour volume, overall values (Median): 0 mm^3
[2]; 260 ng i.p. days 6, 7 and 14
  Inhibition of the in vivo growth of Ehrlich tumour cells, in words: inhibit the in vivo growth
[2]; day 0 after tumour inoculation
  Tumour surface, overall values (Mean): 0 mm^2
  Tumour surface, overall values (Median): 0 mm^2
  Tumour volume, overall values (Mean): 0 mm^3
  Tumour volume, overall values (Median): 0 mm^3
[2]; day 8 after tumour inoculation
  Tumour surface, overall values (Mean): 5.69 mm^2
  Tumour surface, overall values (Median): 2 mm^2
  Tumour volume, overall values (Mean): 9.91 mm^3
  Tumour volume, overall values (Median): 2 mm^3
[2]; [5]
  Tumour surface, overall values (Mean): 13.69 mm^2
  Tumour surface, overall values (Median): 16 mm^2
  Tumour volume, overall values (Mean): 31.34 mm^3
  Tumour volume, overall values (Median): 32 mm^3
[2]; [6]
  Tumour surface, overall values (Mean): 20.875 mm^2
  Tumour surface, overall values (Median): 20.5 mm^2
  Tumour volume, overall values (Mean): 53.12 mm^3
  Tumour volume, overall values (Median): 47.25 mm^3
[2]; [7]
  Tumour surface, overall values (Mean): 32.37 mm^2
  Tumour surface, overall values (Median): 27.5 mm^2
  Tumour volume, overall values (Mean): 105.19 mm^3
  Tumour volume, overall values (Median): 68.75 mm^3
[2]; [8]
  Tumour surface, overall values (Mean): 42.12 mm^2
  Tumour surface, overall values (Median): 39.5 mm^2
  Tumour volume, overall values (Mean): 160.5 mm^3
  Tumour volume, overall values (Median): 123.25 mm^3
[2]; [9]
  Tumour surface, overall values (Mean): 50 mm^2
  Tumour surface, overall values (Median): 39.5 mm^2
  Tumour volume, overall values (Mean): 202.19 mm^3
  Tumour volume, overall values (Median): 123.25 mm^3
[2]; [10]
  Tumour surface, overall values (Mean): 57 mm^2
  Tumour surface, overall values (Median): 46.5 mm^2
  Tumour volume, overall values (Mean): 249.06 mm^3
  Tumour volume, overall values (Median): 147.75 mm^3
[2]; [11]
  Tumour surface, overall values (Mean): 68.87 mm^2
  Tumour surface, overall values (Median): 52.5 mm^2
  Tumour volume, overall values (Mean): 342.94 mm^3
  Tumour volume, overall values (Median): 173.25 mm^3
[2]; [12]
  Tumour surface, overall values (Mean): 78.81 mm^2
  Tumour surface, overall values (Median): 53 mm^2
  Tumour volume, overall values (Mean): 425.91 mm^3
  Tumour volume, overall values (Median): 191 mm^3
[2]; either in surface or volume, all days scored after the day 13th
  Differences in Ehrlich tumour growth rate vs. placebo, statistical significance p (Mann-Whitney U test): < 0.05
